Results on 28 compounds are retold here after US6747027B1, “Thiol sulfonamide metalloprotease inhibitors” (Pharmacia Corporation, priority 1996, dated 2004).

The target in one assay is T1, recombinant human MMP-13 (Homo sapiens, UniProt P45452).
T1 construct: made in house
The assay is described as follows: In vitro metalloprotease inhibition, fluorogenic peptide assay (MMP-13). It is filed as biochemical. The protocol: (§1) Certain of the compounds prepared in the manner described in Examples 1 to 223 were tested for activity by an in vitro assay. Following the procedures of Knight et al., FEBS Lett. 296(3):263 (1992). Briefly, 4-aminophenylmercuric acetate (APMA) or trypsin activated MMPs were incubated with various concentrations of the inhibitor compound at room temperature for 5 minutes (0.02% 2-mercapto-ethanol added to buffer for thiol compounds with 5 minutes or overnight incubation). More specifically, recombinant human MMP-13 and MMP-1 enzymes were prepared in laboratories of the inventors' employer. MMP-13 was expressed in baculovirus as a proenzyme, and purified first over a heparin agarose column and then over a chelating zinc chloride column. The proenzyme was activated by APMA for use in the assay. MMP-1 expressed in transfected HT-1080 was provided by Dr. Howard Welgus of Washington University, St. Louis, Mo. The enzyme was also activated using APMA and was then purified over a hydroxamic acid column.
(§2) The enzyme substrate is a methoxycoumarin-containing polypeptide having the following sequence:
(§3) MCA-ProLeuGlyLeuDpaAlaArgNH^2, wherein MCA is methoxycoumarin and Dpa is 3-(2,4-dinitrophenyl)-L-2,3-diaminopropionyl alanine. This substrate is commercially available from Baychem as product M-1895.
(§4) The buffer used for assays contained 100 mM Tris-HCl, 100 mM NaCl, 10 mM CaCl2 and 0.05 percent polyethyleneglycol(23) lauryl ether at a pH value of 7.5. Assays were carried out at room temperature, and dimethyl sulfoxide (DMSO) at a final concentration of 1 percent was used to dissolve inhibitor compound.
(§5) The assayed inhibitor compound in DMSO/buffer solution was compared to an equal amount of DMSO/buffer with no inhibitor as control using microfluor™ white plates (Dynatech). The inhibitor or control solution was maintained in the plate for 10 minutes and the substrate was added to provide a final concentration of 4 uM.
(§6) In the absence of inhibitor activity, a fluorogenic peptide is cleaved at the gly-leu peptide bond, separating the highly fluorogenic peptide from a 2.4-dinitrophenyl quencher, resulting in an increase of fluorescence intensity (excitation at 328 nm/emmision at 415 nm). Inhibition was measured as a reduction in fluorescent intensity as a function of inhibitor concentration, using a Perkin Elmer L550 plate reader. The IC50 values were calculated from those values. The results are set forth in the Inhibition Table below, reported in terms of IC50 to three significant figures.

For a further assay, the target named is T2, recombinant human MMP-1 (Homo sapiens, UniProt P03956).
T2 construct: made in house; host or cells: transfected HT-1080 cells (provided by Dr. Howard Welgus, Washington University)
T2 sequence (P03956 100-469): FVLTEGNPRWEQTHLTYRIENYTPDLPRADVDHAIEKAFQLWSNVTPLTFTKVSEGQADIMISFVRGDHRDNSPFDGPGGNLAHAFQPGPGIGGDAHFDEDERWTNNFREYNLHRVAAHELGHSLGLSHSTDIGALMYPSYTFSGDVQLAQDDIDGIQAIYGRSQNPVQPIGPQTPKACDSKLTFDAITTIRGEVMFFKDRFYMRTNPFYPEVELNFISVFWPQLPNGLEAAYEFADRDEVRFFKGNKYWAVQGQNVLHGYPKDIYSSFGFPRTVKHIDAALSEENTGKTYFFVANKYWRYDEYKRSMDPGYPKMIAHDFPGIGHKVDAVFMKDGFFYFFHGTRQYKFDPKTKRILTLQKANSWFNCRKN
The assay is described as follows: In vitro metalloprotease inhibition, fluorogenic peptide assay (MMP-1). It is filed as biochemical. As to conditions: recombinant human MMP-1, APMA activated; fluorogenic MCA peptide substrate 4 uM; pH 7.5, room temperature. The protocol:
as §1, §2, §3, §4, §5, §6

Where [1] appears, read: recombinant human MMP-13, APMA activated, fluorogenic MCA peptide substrate 4 uM, pH 7.5, room temperature.

As a reminder, the IC50 is the point on the concentration scale where inhibition reaches its midpoint. As to `COc1ccc(S(=O)(=O)N(Cc2ccccc2)[C@H](C)CS)cc1` [Example 12C, N-(2-Mercapto-1R-methylethyl)-N-(phenylmethyl)-4-methoxybenzenesulfonamide], the 50% inhibitory concentration (IC50) at recombinant human MMP-13 (setting [1]) was 38.5 nM; at recombinant human MMP-1 it was 1300 nM.
Turning to `COc1ccc(S(=O)(=O)N(CC(C)C)[C@H](C)CS)cc1` [Example 14C, N-(2-Mercapto-1R-methylethyl)-N-(2-methylpropyl)-4-methoxybenzenesulfonamide], the IC50 on recombinant human MMP-13 (setting [1]) was 46 nM; at recombinant human MMP-1, 1060 nM.
As to `CCCCOc1ccc(S(=O)(=O)N[C@H](C)CS)cc1` [Example 15, N-(2-Mercapto-1R-methylethyl)-4-(n-butoxy)benzenesulfonamide], the figures for the IC50 at recombinant human MMP-13 (setting [1]) and at recombinant human MMP-1 were 75 nM and over 10000 nM, respectively.
As to `COc1ccc(S(=O)(=O)N[C@H](C)CS)cc1` [Example 16B, N-(2-Mercapto-1R-methylethyl)-4-methoxybenzenesulfonamide], the figures for the IC50 at recombinant human MMP-13 (setting [1]) and at recombinant human MMP-1 were 245 nM and 7000 nM, respectively.
On to `CCCCOc1ccc(S(=O)(=O)N(Cc2ccccc2)[C@H](C)CS)cc1` [Example 17C], for which the IC50 on recombinant human MMP-13 (setting [1]) is 260 nM; on recombinant human MMP-1 it was over 10000 nM.
`CCCCOc1ccc(S(=O)(=O)N(C)[C@H](C)CSSC[C@@H](C)N(C)S(=O)(=O)c2ccc(OCCCC)cc2)cc1` [Example 18]: the IC50 at recombinant human MMP-13 (setting [1]) is 390 nM; at recombinant human MMP-1 it was over 10000 nM.
As to `C[C@H](CS)N(C)S(=O)(=O)c1ccc2c(c1)OCO2` [Example 20C, N-(2-Mercapto-1R-methylethyl)-N-methyl-5-(1,3-benzodioxol-5-yl)sulfonamide], the IC50 on recombinant human MMP-13 (setting [1]) was determined as 110 nM; at recombinant human MMP-1, 3000 nM.
On the same counts, the results for `C[C@H](CS)N(Cc1ccccc1)S(=O)(=O)c1ccc2c(c1)OCO2` [Example 21C, N-(2-Mercapto-1R-methylethyl)-N-(phenylmethyl)-5-(1,3-benzodioxol-5-yl)sulfonamide] are 200 nM and 7000 nM.
Take `CCCCOc1ccc(S(=O)(=O)N(C)[C@H](C)CS)cc1` [Example 22C, N-(2-mercapto-1R-methylethyl)-N-methyl-4-(n-butoxybenzene)sulfonamide]: the IC50 at recombinant human MMP-13 (setting [1]) is 13 nM; on recombinant human MMP-1, 3400 nM.
On to `COc1ccc(S(=O)(=O)N2CCC(S)C2)cc1` (stereo not drawn) [Example 26, 1-[(4-Methoxyphenyl)sulfonyl]-3-mercaptopyrrolidine], for which the 50% inhibitory concentration (IC50) on recombinant human MMP-13 (setting [1]) was 250 nM; at recombinant human MMP-1 it was over 10000 nM.
`COc1ccc(S(=O)(=O)N2CCCC2CS)cc1` (stereo not drawn) [Example 28, 1-[(4-Methoxyphenyl)sulfonyl]pyrrolidine-2-methanethiol]: the IC50 was 800 nM at recombinant human MMP-13 (setting [1]) and over 10000 nM at recombinant human MMP-1.
As for `COc1ccc(S(=O)(=O)N(Cc2ccccc2)[C@@H](CS)C(C)C)cc1` [Example 31D, N-[(1R-Mercaptomethyl)-2-methylpropyl]-4-methoxy-N-(phenylmethyl)benzenesulfonamide], the IC50 at recombinant human MMP-13 (setting [1]) is 600 nM; at recombinant human MMP-1 it was 2500 nM.
On the same counts, the results for `COc1ccc(S(=O)(=O)N(Cc2ccccc2)C(CSC(C)=O)C(C)C)cc1` (stereo not drawn) [Example 33C] are 345 nM and over 10000 nM.
As for `COc1ccc(S(=O)(=O)N(Cc2ccccc2)[C@H](CS)C(C)C)cc1` [Example 33D, N-[(1S-Mercaptomethyl)-2-methylpropyl]-4-methoxy-N-(phenylmethyl)benzenesulfonamide], the IC50 on recombinant human MMP-13 (setting [1]) and on recombinant human MMP-1 was over 10000 nM each time.
Consider `CCCOc1ccc(S(=O)(=O)N(C)[C@H](C)CS)cc1` [Example 37C, N-(2-Mercapto-1R-methylethyl)-N-methyl-4-(n-propyloxy)benzenesulfonamide], for which the figures for the IC50 at recombinant human MMP-13 (setting [1]) and at recombinant human MMP-1 were 5 nM and 1500 nM, respectively.
`CCOc1ccc(S(=O)(=O)N(C)[C@H](C)CS)cc1` [Example 38C, N-(2-Mercapto-1R-methylethyl)-N-methyl-4-ethoxybenzenesulfonamide]: the results for the IC50 on recombinant human MMP-13 (setting [1]) and on recombinant human MMP-1 were 31 nM and 2500 nM, respectively.
Turning to `CCCCCOc1ccc(S(=O)(=O)N(C)[C@H](C)CS)cc1` [Example 39C, N-(2-Mercapto-1R-methylethyl)-N-methyl-4-(n-pentyloxy)benzenesulfonamide], the half-maximal inhibitory concentration (IC50) at recombinant human MMP-13 (setting [1]) is 21.5 nM; on recombinant human MMP-1 it was over 10000 nM.
`C[C@H](CS)N(C)S(=O)(=O)c1ccc(Oc2ccccc2)cc1` [Example 40E, N-(2-Mercapto-1R-methylethyl)-N-methyl-4-(phenoxy)benzenesulfonamide]: the IC50 on recombinant human MMP-13 (setting [1]) was 0.61 nM; on recombinant human MMP-1, 309 nM.
For the compound `C[C@H](CS)N(C)S(=O)(=O)c1ccc(Sc2ccccc2)cc1` [Example 41C, N-(2-Mercapto-1R-methylethyl)-N-methyl-4-(thiophenyl)benzenesulfonamide], the IC50 at recombinant human MMP-13 (in vitro, recombinant human MMP-13) is 2 nM; at recombinant human MMP-13 (setting [1]) it was 1.8 nM; at recombinant human MMP-1, over 10000 nM.
Regarding `C[C@H](CO)N(C)S(=O)(=O)c1ccc(-c2ccccn2)s1` [Example 42D, N-(2-Hydroxy-1R-methylethyl)-N-methyl-2-(pyrid-2-yl)thiophene-5-sulfonamide], the IC50 is 1800 nM on recombinant human MMP-13 (setting [1]) and over 10000 nM on recombinant human MMP-1.
On the same counts, the results for `COc1ccc(S(=O)(=O)N(C)Cc2ccccc2S)cc1` [Example 44, N-[(2-Mercaptophenyl)methyl]-N-methyl-4-methoxybenzenesulfonamide] are 400 nM and over 10000 nM.
For `CCCCOc1ccc(S(=O)(=O)N(CCN2CCOCC2)[C@H](C)CS)cc1` [Example 45C, N-(2-Mercapto-1R-methylethyl)-N-[2-(4-morpholino)ethyl]-4-(n-butoxy)benzenesulfonamide], the IC50 at recombinant human MMP-13 (setting [1]) came to 3 nM; at recombinant human MMP-1, 3200 nM.
Consider `CCCCOc1ccc(S(=O)(=O)N(CCN2CCCCC2)[C@H](C)CS)cc1` [Example 46, N-(2-Mercapto-1R-methylethyl)-N-[2-(1-piperidino)ethyl]-4-(n-butoxy)benzenesulfonamide], for which the values for the IC50 at recombinant human MMP-13 (setting [1]) and on recombinant human MMP-1 were 4 nM and 3500 nM, respectively.
As to `CCCCOc1ccc(S(=O)(=O)N(CCN2CCCC2)[C@H](C)CS)cc1` [Example 47C, N-(2-Mercapto-1R-methylethyl)-N-[2-(1-pyrrolidino)ethyl]-4-(n-butoxy)benzenesulfonamide], the figures for the IC50 on recombinant human MMP-13 (setting [1]) and at recombinant human MMP-1 were 4.47 nM and 4830 nM, respectively.
For the compound `CCCCCN([C@H](C)CS)S(=O)(=O)c1ccc(OCCCC)cc1` [Example 48C, N-(2-Mercapto-1R-methylethyl)-N-pentyl-4-(n-butoxy)benzenesulfonamide], the IC50 on recombinant human MMP-13 (setting [1]) was 45 nM; at recombinant human MMP-1, over 10000 nM.
Take `COc1ccc(S(=O)(=O)N(Cc2cccnc2)[C@H](C)CS)cc1` [Example 49, N-(2-Mercapto-1-R-methylethyl)-N-(3-pyridylmethyl)-4-methoxybenzenesulfonamide]: the IC50 at recombinant human MMP-13 (setting [1]) is 17.5 nM; at recombinant human MMP-1 it was 300 nM.
As to `C[C@H](CS)N(Cc1ccccc1)S(=O)(=O)CCCSc1ccccc1` [Example 51, N-(2-Mercapto-1R-methylethyl)-N-benzyl(3-thiophenylpropyl)sulphonamide], the figures for the IC50 at recombinant human MMP-13 (setting [1]) and at recombinant human MMP-1 were 340 nM and over 10000 nM, respectively.
With `C[C@H](CS)N(CCN1CCCCC1)S(=O)(=O)CCCSc1ccccc1` [Example 52, N-(2-Mercapto-1R-methylethyl)-N-[2-(1-piperidino)ethyl](3-thiophenylpropyl)sulphonamide], the IC50 on recombinant human MMP-13 (setting [1]) was 45 nM; at recombinant human MMP-1, over 10000 nM.
